How the values were obtained:
[1] = target: T1, Recombinant G2019S-LRRK2 protein (Homo sapiens, UniProt Q5S007, G2019S); experiment: LanthaScreen Kinase Activity Assay (TR-FRET), G2019S-LRRK2; format: biochemical; settings: class symbols; 25 μM ATP, 400 nM LRRKtide, 2.9 nM kinase, 60 min at room temperature
T1 construct: purchased Life Technologies PV4881
How it was run: (§1)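 Recombinant wild-type or G2019S LRRK2 (2.9 nM final) phosphorylated fluorescein-LRRKtide (400 nM) with 25 μM ATP in 50 mM Tris pH 8.5, 5 mM MgCl2, 1 mM EGTA, 0.01% Brij-35, 2 mM DTT for 60 min at RT. After EDTA stop, Tb-anti-pERM TR-FRET (520/495 nm ratio) was read. IC50 values came from 11-point, 3-fold compound dilutions.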

[2] = target: T2, Recombinant wild type LRRK2 protein (Homo sapiens, UniProt Q5S007); experiment: LanthaScreen Kinase Activity Assay (TR-FRET), wild type LRRK2; format: biochemical; settings: class symbols; 25 μM ATP, 400 nM LRRKtide, 2.9 nM kinase, 60 min at room temperature; read-out: LRRK2 WT IC50
T2 construct: purchased Life Technologies PR8604B
T2 sequence (Q5S007 whole entry): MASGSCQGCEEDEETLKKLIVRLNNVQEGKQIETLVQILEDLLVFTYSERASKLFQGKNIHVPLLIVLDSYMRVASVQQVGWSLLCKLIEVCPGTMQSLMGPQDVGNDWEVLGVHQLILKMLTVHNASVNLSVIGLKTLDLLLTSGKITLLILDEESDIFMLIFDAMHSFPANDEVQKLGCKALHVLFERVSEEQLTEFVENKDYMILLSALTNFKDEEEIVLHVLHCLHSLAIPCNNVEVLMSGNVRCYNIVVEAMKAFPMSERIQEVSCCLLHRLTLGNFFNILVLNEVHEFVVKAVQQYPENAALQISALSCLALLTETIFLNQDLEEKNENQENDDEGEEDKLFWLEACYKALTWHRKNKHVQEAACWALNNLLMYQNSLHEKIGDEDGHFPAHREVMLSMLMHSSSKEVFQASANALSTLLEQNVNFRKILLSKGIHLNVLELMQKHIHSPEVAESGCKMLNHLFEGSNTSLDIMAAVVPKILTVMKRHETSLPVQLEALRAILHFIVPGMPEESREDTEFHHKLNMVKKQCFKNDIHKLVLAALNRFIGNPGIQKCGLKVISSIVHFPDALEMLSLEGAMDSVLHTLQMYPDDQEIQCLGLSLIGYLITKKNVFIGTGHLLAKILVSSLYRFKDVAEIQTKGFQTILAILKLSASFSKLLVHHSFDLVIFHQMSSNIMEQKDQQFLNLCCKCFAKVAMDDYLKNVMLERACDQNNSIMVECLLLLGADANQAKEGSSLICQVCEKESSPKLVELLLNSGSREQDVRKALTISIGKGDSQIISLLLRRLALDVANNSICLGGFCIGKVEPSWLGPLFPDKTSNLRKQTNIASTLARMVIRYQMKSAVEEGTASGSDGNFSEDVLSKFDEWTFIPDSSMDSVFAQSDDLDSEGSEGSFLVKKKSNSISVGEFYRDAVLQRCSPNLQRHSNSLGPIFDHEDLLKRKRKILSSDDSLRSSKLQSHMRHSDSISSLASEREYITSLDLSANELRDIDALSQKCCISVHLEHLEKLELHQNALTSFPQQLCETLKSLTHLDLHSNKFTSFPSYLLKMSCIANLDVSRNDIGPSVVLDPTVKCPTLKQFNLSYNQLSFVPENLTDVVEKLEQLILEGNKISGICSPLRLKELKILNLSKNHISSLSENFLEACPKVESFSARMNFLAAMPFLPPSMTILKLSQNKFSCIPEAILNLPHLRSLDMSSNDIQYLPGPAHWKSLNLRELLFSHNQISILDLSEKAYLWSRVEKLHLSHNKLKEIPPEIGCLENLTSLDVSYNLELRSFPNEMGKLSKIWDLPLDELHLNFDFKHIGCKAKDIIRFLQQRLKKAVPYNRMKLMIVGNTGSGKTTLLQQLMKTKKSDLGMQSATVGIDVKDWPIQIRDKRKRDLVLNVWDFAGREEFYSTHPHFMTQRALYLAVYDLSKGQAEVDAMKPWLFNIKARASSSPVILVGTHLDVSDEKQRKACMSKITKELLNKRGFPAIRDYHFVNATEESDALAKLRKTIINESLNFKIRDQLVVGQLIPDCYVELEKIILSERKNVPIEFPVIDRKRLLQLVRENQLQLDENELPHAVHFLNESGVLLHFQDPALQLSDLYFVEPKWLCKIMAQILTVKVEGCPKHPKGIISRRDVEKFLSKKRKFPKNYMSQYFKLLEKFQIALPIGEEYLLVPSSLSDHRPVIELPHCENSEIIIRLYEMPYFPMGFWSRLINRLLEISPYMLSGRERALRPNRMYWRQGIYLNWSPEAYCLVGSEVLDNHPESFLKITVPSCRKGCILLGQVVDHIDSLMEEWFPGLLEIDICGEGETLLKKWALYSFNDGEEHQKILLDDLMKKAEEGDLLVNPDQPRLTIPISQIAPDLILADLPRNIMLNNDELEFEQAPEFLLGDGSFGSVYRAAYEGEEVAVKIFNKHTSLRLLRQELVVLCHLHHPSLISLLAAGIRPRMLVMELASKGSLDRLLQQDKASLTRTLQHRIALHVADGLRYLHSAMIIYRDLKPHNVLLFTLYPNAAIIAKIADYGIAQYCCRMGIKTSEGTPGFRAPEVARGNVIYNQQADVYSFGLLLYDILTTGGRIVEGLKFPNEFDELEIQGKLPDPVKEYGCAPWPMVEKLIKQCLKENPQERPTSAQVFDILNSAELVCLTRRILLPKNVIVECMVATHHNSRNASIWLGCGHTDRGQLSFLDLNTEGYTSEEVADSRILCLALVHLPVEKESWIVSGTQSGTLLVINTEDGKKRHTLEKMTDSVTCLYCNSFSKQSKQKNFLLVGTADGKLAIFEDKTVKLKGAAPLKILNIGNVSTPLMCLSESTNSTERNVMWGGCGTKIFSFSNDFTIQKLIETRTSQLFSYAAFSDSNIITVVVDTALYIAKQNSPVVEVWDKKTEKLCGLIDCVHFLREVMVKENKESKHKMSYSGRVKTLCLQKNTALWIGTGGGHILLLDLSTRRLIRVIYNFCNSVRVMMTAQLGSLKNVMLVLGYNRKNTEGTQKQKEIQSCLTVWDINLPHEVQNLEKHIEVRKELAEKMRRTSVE
How it was run: as §1

T1 sequence (Q5S007 whole entry G2019S): as the sequence (Q5S007 whole entry) above, with G2019S counted along it

| SMILES | IC50 [1] | IC50 [2] |
| --- | --- | --- |
| Cc1cc2cnnn2c(C)c1C(=O)Nc1ccc2[nH]nc(Br)c2c1 [Example 45, N-(3-Bromo-1H-indazol-5-yl)-5,7-dimethyl-[1,2,3]triazolo[1,5-a]pyridine-6-carboxamide] | ≤ 100 nM | 100 to 1000 nM |
| Cc1cn2nc(C(=O)Nc3ccc4[nH]nc(-c5ccoc5)c4c3)cc2c(C)n1 [Example 163, N-(3-(Furan-3-yl)-1H-indazol-5-yl)-4,6-dimethylpyrazolo[1,5-a]pyrazine-2-carboxamide] | ≤ 100 nM | ≤ 100 nM |
| CCCc1n[nH]c2ccc(NC(=O)c3c(F)cc4c(cnn4C)c3F)cc12 [Example 99, 4,6-Difluoro-1-methyl-N-(3-propyl-1H-indazol-5-yl)-1H-indazole-5-carboxamide] | ≤ 100 nM | 100 to 1000 nM |
| Cc1c(C(=O)Nc2ccc3[nH]nc(-c4ccncc4)c3c2)ccc2[nH]nnc12 [Example 12, 4-Methyl-N-(3-(pyridin-4-yl)-1H-indazol-5-yl)-1H-benzo[d][1,2,3]triazole-5-carboxamide] | ≤ 100 nM | 100 to 1000 nM |
| Cn1ncc2c(F)c(C(=O)Nc3ccc4[nH]nc(-c5ccccc5F)c4c3)c(F)cc21 [Example 78, 4,6-Difluoro-N-(3-(2-fluorophenyl)-1H-indazol-5-yl)-1-methyl-1H-indazole-5-carboxamide] | ≤ 100 nM | 100 to 1000 nM |
| Cn1cc(-c2n[nH]c3ccc(NC(=O)c4c(F)cc5c(cnn5C)c4F)cc23)c(C(F)(F)F)n1 [Example 92, 4,6-Difluoro-1-methyl-N-(3-(1-methyl-3-(trifluoromethyl)-1H-pyrazol-4-yl)-1H-indazol-5-yl)-1H-indazole-5-carboxamide] | ≤ 100 nM | 100 to 1000 nM |
| Cn1ncc2c(F)c(C(=O)Nc3ccc4[nH]nc(-c5cncc(N6CCOCC6)c5)c4c3)c(F)cc21 [Example 98, 4,6-Difluoro-1-methyl-N-(3-(5-morpholinopyridin-3-yl)-1H-indazol-5-yl)-1H-indazole-5-carboxamide] | ≤ 100 nM | ≤ 100 nM |
| Cc1cc2cncn2cc1C(=O)Nc1ccc2[nH]nc(-c3ccoc3)c2c1 [Example 146, N-(3-(Furan-3-yl)-1H-indazol-5-yl)-7-methylimidazo[1,5-a]pyridine-6-carboxamide] | ≤ 100 nM | ≤ 100 nM |
| O=C(Nc1ccc2[nH]nc(-c3ccoc3)c2c1)C1CCc2nncn2C1 (single isomer, unassigned) [Example 162b] | ≤ 100 nM | 100 to 1000 nM |
| O=C(Nc1ccc2[nH]nc(-c3ccoc3)c2c1)c1nc2ccncc2s1 [Example 171, N-(3-(Furan-3-yl)-1H-indazol-5-yl)thiazolo[5,4-c]pyridine-2-carboxamide] | ≤ 100 nM | ≤ 100 nM |
| O=C(Nc1ccc2[nH]nc(-c3ccoc3)c2c1)C1CCc2cncn2C1 (single isomer, unassigned) [Example 173a] | ≤ 100 nM | 100 to 1000 nM |
| Cc1cc2c(cnn2C)c(C)c1C(=O)Nc1ccc2[nH]nc(-c3ccoc3)c2c1 [Example 157, N-(3-(Furan-3-yl)-1H-indazol-5-yl)-1,4,6-trimethyl-1H-indazole-5-carboxamide] | ≤ 100 nM | ≤ 100 nM |
| Cc1cc2c(C)ncn2c(C)c1C(=O)Nc1ccc2[nH]nc(-c3ccoc3)c2c1 [Example 147, N-(3-(Furan-3-yl)-1H-indazol-5-yl)-1,5,7-trimethylimidazo[1,5-a]pyridine-6-carboxamide] | ≤ 100 nM | ≤ 100 nM |
| O=C(Nc1ccc2[nH]nc(-c3ccoc3)c2c1)c1nc2cnccc2s1 [Example 170, N-(3-(Furan-3-yl)-1H-indazol-5-yl)thiazolo[4,5-c]pyridine-2-carboxamide] | ≤ 100 nM | 100 to 1000 nM |
| CN(C)c1cccc(-c2n[nH]c3ccc(NC(=O)c4c(F)cc5c(cnn5C)c4F)cc23)c1 [Example 88, N-(3-(3-(Dimethylamino)phenyl)-1H-indazol-5-yl)-4,6-difluoro-1-methyl-1H-indazole-5-carboxamide] | ≤ 100 nM | ≤ 100 nM |
| Cc1cc2nncn2c(C)c1C(=O)Nc1ccc2[nH]nc(-c3ccoc3)c2c1 [Example 153, N-(3-(Furan-3-yl)-1H-indazol-5-yl)-5,7-dimethyl-[1,2,4]triazolo[4,3-a]pyridine-6-carboxamide] | ≤ 100 nM | ≤ 100 nM |
| Cn1ncc2c(F)c(C(=O)Nc3ccc4[nH]nc(-c5ccon5)c4c3)c(F)cc21 [Example 135, 4,6-Difluoro-N-(3-(isoxazol-3-yl)-1H-indazol-5-yl)-1-methyl-1H-indazole-5-carboxamide] | ≤ 100 nM | ≤ 100 nM |

The next lines start with the values.

| IC50 [1] | IC50 [2] | SMILES |
| --- | --- | --- |
| ≤ 100 nM | 100 to 1000 nM | Cn1ncc2c(F)c(C(=O)Nc3ccc4[nH]nc(-c5cncnc5)c4c3)c(F)cc21 [Example 34, 4,6-Difluoro-1-methyl-N-(3-(pyrimidin-5-yl)-1H-indazol-5-yl)-1H-indazole-5-carboxamide] |
| 100 to 1000 nM | 100 to 1000 nM | O=C(Nc1ccc2[nH]nc(-c3ccoc3)c2c1)c1cn2cccnc2n1 [Example 128, N-(3-(Furan-3-yl)-1H-indazol-5-yl)imidazo[1,2-a]pyrimidine-2-carboxamide] |
| ≤ 100 nM | 100 to 1000 nM | Cc1nc2cncn2c(C)c1C(=O)Nc1ccc2[nH]nc(-c3ccoc3)c2c1 [Example 112, N-(3-(Furan-3-yl)-1H-indazol-5-yl)-2,4-dimethylimidazo[1,5-a]pyrimidine-3-carboxamide] |
| ≤ 100 nM | 100 to 1000 nM | Cc1cc2[nH]ccc2cc1C(=O)Nc1ccc2[nH]nc(-c3ccccc3)c2c1 [Example 20, 6-Methyl-N-(3-phenyl-1H-indazol-5-yl)-1H-indole-5-carboxamide] |
| ≤ 100 nM | ≤ 100 nM | Cc1cc2c(cnn2C)nc1C(=O)Nc1ccc2[nH]nc(-c3cnco3)c2c1 [Example 160, 1,6-Dimethyl-N-(3-(oxazol-5-yl)-1H-indazol-5-yl)-1H-pyrazolo[4,3-b]pyridine-5-carboxamide] |
| ≤ 100 nM | 100 to 1000 nM | Cn1ncc2c(F)c(C(=O)Nc3ccc4[nH]nc(-c5ncco5)c4c3)c(F)cc21 [Example 138, 4,6-Difluoro-1-methyl-N-(3-(oxazol-2-yl)-1H-indazol-5-yl)-1H-indazole-5-carboxamide] |
| ≤ 100 nM | 100 to 1000 nM | Cc1nc2ccc(C(=O)Nc3ccc4[nH]nc(-c5ccoc5)c4c3)cc2o1 [Example 134, N-(3-(Furan-3-yl)-1H-indazol-5-yl)-2-methylbenzo[d]oxazole-6-carboxamide] |
| ≤ 100 nM | 1000 to 10000 nM | Cc1cc2cncn2c(C)c1C(=O)Nc1ccc2[nH]nc(C)c2c1 [Example 55, 5,7-Dimethyl-N-(3-methyl-1H-indazol-5-yl)imidazo[1,5-a]pyridine-6-carboxamide] |
| ≤ 100 nM | ≤ 100 nM | O=C(Nc1ccc2[nH]nc(-c3ccccc3)c2c1)c1cc2[nH]ncc2cc1Br [Example 24, 5-Bromo-N-(3-phenyl-1H-indazol-5-yl)-1H-indazole-6-carboxamide] |
| ≤ 100 nM | ≤ 100 nM | Cc1cc(-c2n[nH]c3ccc(NC(=O)c4c(F)cc5c(cnn5C)c4F)cc23)cc(C)n1 [Example 83, N-(3-(2,6-Dimethylpyridin-4-yl)-1H-indazol-5-yl)-4,6-difluoro-1-methyl-1H-indazole-5-carboxamide] |
| ≤ 100 nM | 100 to 1000 nM | COc1ccccc1-c1n[nH]c2ccc(NC(=O)c3c(C)cc4cnnn4c3C)cc12 [Example 46, N-(3-(2-Methoxyphenyl)-1H-indazol-5-yl)-5,7-dimethyl-[1,2,3]triazolo[1,5-a]pyridine-6-carboxamide] |
| ≤ 100 nM | ≤ 100 nM | Cc1ccc(-c2n[nH]c3ccc(NC(=O)c4c(F)cc5c(cnn5C)c4F)cc23)s1 [Example 97, 4,6-Difluoro-1-methyl-N-(3-(5-methylthiophen-2-yl)-1H-indazol-5-yl)-1H-indazole-5-carboxamide] |
| ≤ 100 nM | ≤ 100 nM | Cc1cn2cnnc2c(C)c1C(=O)Nc1ccc2[nH]nc(-c3ccccc3)c2c1 [Example 57, 6,8-Dimethyl-N-(3-phenyl-1H-indazol-5-yl)-[1,2,4]triazolo[4,3-a]pyridine-7-carboxamide] |
| ≤ 100 nM | ≤ 100 nM | Cc1cc2cncn2c(C)c1C(=O)Nc1ccc2[nH]nc(-c3ccccc3)c2c1 [Example 69, 5,7-Dimethyl-N-(3-phenyl-1H-indazol-5-yl)imidazo[1,5-a]pyridine-6-carboxamide] |
| ≤ 100 nM | 1000 to 10000 nM | Cc1cc2cnnn2c(C)c1C(=O)Nc1ccc2[nH]nc(C)c2c1 [Example 49, 5,7-Dimethyl-N-(3-methyl-1H-indazol-5-yl)-[1,2,3]triazolo[1,5-a]pyridine-6-carboxamide] |
| ≤ 100 nM | 100 to 1000 nM | Cc1c(C(=O)Nc2ccc3[nH]nc(-c4ccccc4)c3c2)ccc2cncn12 [Example 62, 5-Methyl-N-(3-phenyl-1H-indazol-5-yl)imidazo[1,5-a]pyridine-6-carboxamide] |
| ≤ 100 nM | 100 to 1000 nM | Cn1ncc2c1CCC(C(=O)Nc1ccc3[nH]nc(-c4ccoc4)c3c1)C2 (single isomer, unassigned) [Example 161b] |
| ≤ 100 nM | 100 to 1000 nM | Cc1cc2nn[nH]c2cc1C(=O)Nc1ccc2[nH]nc(-c3ccncc3)c2c1 [Example 1] |
| ≤ 100 nM | ≤ 100 nM | Cc1cc2nn[nH]c2cc1C(=O)Nc1ccc2[nH]nc(-c3cccc(N4CCOCC4)c3)c2c1 [Example 2, 5-Methyl-N-(3-(3-morpholinophenyl)-1H-indazol-5-yl)-1H-benzo[d][1,2,3]triazole-6-carboxamide] |
